Test results from US20030138399A1, “Anti-inflammatory therapy for inflammatory mediated infection” (priority 1999, published 2003).
Like-named read-outs stand apart in the source and are kept apart here.

Experiments:
[1] = test system: HIV pNLlucΔBgl pseudotyped with M-tropic JRFL envelope; experiment: HIV replication (luciferase expression) in activated PBMCs, M-tropic pseudotyped virus; type: cell-based; settings: 4 days in culture
Experimental: (§1) The PBMCs comprise a heterogeneous population of CD4 and CD8 cells with chemokines and cytokines present in the medium. […] Replication incompetent HIV pNLlucΔBgl pseudotyped with either M-tropic JRFL or T-tropic LAI envelope was used for the infection. Luciferase expression was used to assess the degree of HIV replication after 4 days in culture. Medication treated cultures were compared with samples receiving no drug. Cells were analyzed by flow cytometry for cell death after 4 days by staining with 7-AAD.

[2] = test system: cultured cells infected with HIV; experiment: FIG. 19 study: cell death (cellular toxicity of the drug); type: cell-based
Source text: (§2) Using a culture of cells that are infected with an HIV virus that expresses luciferase when replicated, but without any treatment as a control, Asacol at the two lowest doses (30 and 300 micrograms) is able to inhibit HIV replication by approximately 20%. At the 3000 microgram dose, the amount of suppression is higher, but this is due, in part, to cellular toxicity of the drug at this dose (approximately 30% cell death vs. 13-15% cell death for 30 and 300 microgram doses; AZT produces approximately 16% cell death at a dose of 5 μg). […] While the anti-inflammatory activity of Asacol is not as potent at suppressing HIV replication as is AZT, the activity is nonetheless statistically significant.

[3] = test system: HIV virus that expresses luciferase when replicated; experiment: FIG. 19: HIV replication in cultured infected cells, luciferase by luminometer; type: cell-based
Experimental: Cultured cells infected with HIV were treated with 5-ASA or AZT in the amounts indicated. Luciferase expression, which indicates the amount of HIV replication, was quantified using a luminometer. The data shown represent nine separate studies.
as §2

[4] = test system: HIV pNLlucΔBgl pseudotyped with T-tropic LAI envelope; experiment: HIV replication (luciferase expression) in activated PBMCs, T-tropic pseudotyped virus; type: cell-based; settings: 4 days in culture
Experimental: as §1

[5] = test system: activated PBMCs; settings: 4 days
Experimental: as §1

Compound | % Change from untreated culture (luciferase expression), M-tropic HIV ([1]; 3 μM) [%] | % Change from untreated culture (luciferase expression), M-tropic HIV ([1]; 30 μM) [%] | % Change from untreated culture (luciferase expression), M-tropic HIV ([1]; 300 μM) [%] | % Change from untreated culture (luciferase expression), M-tropic HIV ([1]; 3000 μM, *P < .05) | cell death ([2]; 30 and 300 microgram doses) | cell death ([2]; 3000 microgram dose) | amount of suppression of HIV replication ([3]; 3000 microgram dose, compared with lower doses) | inhibition of HIV replication ([3]; two lowest doses (30 and 300 micrograms)) | % Change from untreated culture (luciferase expression), T-Tropic HIV ([4]; 2 μM) [%] | % Change from untreated culture (luciferase expression), T-Tropic HIV ([4]; 20 μM) [%] | % Change from untreated culture (luciferase expression), T-Tropic HIV ([4]; 200 μM) [%] | % death ([5]; 30 μM) [%] | % death ([5]; 300 μM) [%] | % death ([5]; 3000 μM) [%] | % Change from untreated culture (luciferase expression), M-tropic HIV ([1]; 5 μM, *P < .05) | cell death ([2]; dose of 5 μg) | % Change from untreated culture (luciferase expression), T-Tropic HIV ([4]; 5 μM, *P < .05)
Nc1ccc(O)c(C(=O)O)c1 [5-ASA, 5-aminosalicylic acid] | 46.2 | 50.3 | 48.9 | 67.6* % | 13-15% | approximately 30% | higher | approximately 20% | 3.2 | 22.4 | 26.0 | 7.3 | 9.4 | 13.3 |  |  | 
Cc1cn([C@H]2C[C@H](N=[N+]=[N-])[C@@H](CO)O2)c(=O)[nH]c1=O [AZT, zidovudine] |  |  |  |  |  |  |  |  |  |  |  |  |  |  | 80.0* % | approximately 16% | 99.3* %
